In patent US8889874B2, “Imidazolone-chalcone derivatives as potential anticancer agent and process for the preparation thereof” (Council of Scientific and Industrial Research, priority 2010, dated 2014):
Where two headings read alike, the source gives them in different places.

Assays:
Assay type in all cases: cell-based, human
[1] = test system: A549/ATCC (non-small cell lung); experiment: NCI anticancer screen, SRB assay, 48 h; conditions: Homo sapiens
Summary of the method: (§1)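 Sulforhodamine B protein assay read cell growth after 48 h of continuous compound exposure. Dose-response curves per cell line used at least five 10-fold-diluted concentrations, within a panel of fifty-three human lines from nine tumour types.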

CAKI-1 (renal) = experiment: NCI anticancer screen, SRB assay, 48 h; conditions: Homo sapiens
Summary of the method: as §1

HCC-2998 (colon) = experiment: NCI anticancer screen, SRB assay, 48 h; conditions: Homo sapiens
Summary of the method: as §1

HCT-116 (colon) = experiment: NCI anticancer screen, SRB assay, 48 h; conditions: Homo sapiens
Summary of the method: as §1

HCT-15 (colon) = experiment: NCI anticancer screen, SRB assay, 48 h; conditions: Homo sapiens
Summary of the method: as §1

MDA-MB-435 (melanoma) = experiment: NCI anticancer screen, SRB assay, 48 h; conditions: Homo sapiens
Summary of the method: as §1

[2] = test system: NCI-H226 (non-small cell lung); experiment: NCI anticancer screen, SRB assay, 48 h; conditions: Homo sapiens
Summary of the method: as §1

NCI/ADR-RES (ovarian) = experiment: NCI anticancer screen, SRB assay, 48 h; conditions: Homo sapiens, NCI/ADR-RES
Summary of the method: as §1

OVCAR-4 (ovarian) = experiment: NCI anticancer screen, SRB assay, 48 h; conditions: Homo sapiens
Summary of the method: as §1

[3] = test system: RPMI-8226 (leukemia cell line); experiment: NCI anticancer screen, SRB assay, 48 h; conditions: Homo sapiens
Summary of the method: as §1

SK-MEL-5 (melanoma) = experiment: NCI anticancer screen, SRB assay, 48 h; conditions: Homo sapiens
Summary of the method: as §1

SN12C (renal) = experiment: NCI anticancer screen, SRB assay, 48 h; conditions: Homo sapiens, SN12C
Summary of the method: as §1

SNB-19 (CNS) = experiment: NCI anticancer screen, SRB assay, 48 h; conditions: Homo sapiens
Summary of the method: as §1

TD-47D (breast) = experiment: NCI anticancer screen, SRB assay, 48 h; conditions: Homo sapiens
Summary of the method: as §1

TK-10 (renal) = experiment: NCI anticancer screen, SRB assay, 48 h; conditions: Homo sapiens
Summary of the method: as §1

U251 (CNS) = experiment: NCI anticancer screen, SRB assay, 48 h; conditions: Homo sapiens
Summary of the method: as §1

UACC-257 (melanoma) = experiment: NCI anticancer screen, SRB assay, 48 h; conditions: Homo sapiens
Summary of the method: as §1

Breast cancer cell lines = experiment: NCI anticancer screen, SRB assay, panel summary; conditions: Homo sapiens
Summary of the method: as §1

CNS cancer cell lines = experiment: NCI anticancer screen, SRB assay, panel summary; conditions: for GI50: Homo sapiens
Summary of the method: as §1

Colon cancer cell lines = experiment: NCI anticancer screen, SRB assay, panel summary; conditions: for GI50: Homo sapiens
Summary of the method: as §1

[4] = test system: Leukemia cancer cell lines; experiment: NCI anticancer screen, SRB assay, panel summary; conditions: Homo sapiens
Summary of the method: as §1

[5] = test system: Melanoma cancer cell lines; experiment: NCI anticancer screen, SRB assay, panel summary; conditions: for GI50: Homo sapiens
Summary of the method: as §1

[6] = test system: Non-small cell lung cancer cell lines; experiment: NCI anticancer screen, SRB assay, panel summary; conditions: Homo sapiens
Summary of the method: as §1

[7] = test system: Ovarian cancer cell lines; experiment: NCI anticancer screen, SRB assay, panel summary; conditions: Homo sapiens
Summary of the method: as §1

[8] = test system: Prostate cancer cell lines; experiment: NCI anticancer screen, SRB assay, panel summary
Summary of the method: as §1

Renal cancer cell lines = experiment: NCI anticancer screen, SRB assay, panel summary; conditions: Homo sapiens
Summary of the method: as §1

[9] = 48 h exposure, SRB, read-out: GI50
[10] = read-out: pGI50 (-log of molar concentration causing 50% inhibition of net cell growth) (converted)

COc1cc(/C=C/C(=O)c2cccc(-n3cc(-c4cc(OC)c(OC)c(OC)c4)[nH]c3=O)c2)cc(OC)c1OC [5d, 4-(3,4,5-trimethoxyphenyl)-1-3-[(E)-3-(3,4,5-trimethoxyphenyl)-2-propenoyl]phenyl-2,3-dihydro-1H-2-imidazolone]
GI50 [1, 9]: 3030 nM | GI50 [1, 10]: 3020 nM | GI50 (CAKI-1 (renal); [9]): 2890 nM | GI50 (CAKI-1 (renal); [10]): 2880 nM | GI50 (HCC-2998 (colon); [9]): 1920 nM | GI50 (HCC-2998 (colon); [10]): 1910 nM | GI50 (HCT-116 (colon); [9]): 740 nM | GI50 (HCT-116 (colon); [10]): 741 nM | GI50 (HCT-15 (colon); [9]): 1890 nM | GI50 (HCT-15 (colon); [10]): 1910 nM | GI50 (MDA-MB-435 (melanoma); [9]): 2110 nM | GI50 (MDA-MB-435 (melanoma); [10]): 2090 nM | GI50 [2, 9]: 14400 nM | GI50 [2, 10]: 14500 nM | GI50 (NCI/ADR-RES (ovarian); NCl/ADR-RES, 48 h exposure, SRB, read-out: GI50): 2100 nM | GI50 (NCI/ADR-RES (ovarian); [10]): 2090 nM | GI50 (OVCAR-4 (ovarian); [9]): 3770 nM | GI50 (OVCAR-4 (ovarian); [10]): 3800 nM | GI50 [3, 9]: 230 nM | GI50 [3, 10]: 229 nM | GI50 (SK-MEL-5 (melanoma); [9]): 2760 nM | GI50 (SK-MEL-5 (melanoma); [10]): 2750 nM | GI50 (SN12C (renal); SN 12C, read-out: pGI50 (-log of molar concentration causing 50% inhibition of net cell growth) (converted)): 2750 nM | GI50 (SN12C (renal); [9]): 2750 nM | GI50 (SNB-19 (CNS); [9]): 4070 nM | GI50 (SNB-19 (CNS); [10]): 4070 nM | GI50 (TD-47D (breast); [9]): 3080 nM | GI50 (TD-47D (breast); [10]): 3090 nM | GI50 (TK-10 (renal); [9]): 3000 nM | GI50 (TK-10 (renal); [10]): 3020 nM | GI50 (U251 (CNS); U-251, 48 h exposure, SRB, read-out: GI50): 1230 nM | GI50 (U251 (CNS); U-251, read-out: pGI50 (-log of molar concentration causing 50% inhibition of net cell growth) (converted)): 1230 nM | GI50 (UACC-257 (melanoma); [9]): 2220 nM | GI50 (UACC-257 (melanoma); [10]): 2240 nM | GI50 (Breast cancer cell lines; Breast panel, log of concentration in mol/L causing 50% inhibition of net cell growth, read-out: mean graph midpoint (MG_MID) of Log10 GI50 (converted)): 3980 nM | LC50 (Breast cancer cell lines; Breast panel, log of concentration leading to 50% net cell death, read-out: mean graph midpoint (MG_MID) of Log10 LC50 (converted)): 45700 nM | GI50 (Breast cancer cell lines; five breast cancer cell lines, exposure at least 48 hrs, read-out: GI50, range over the panel): 470 to 4190 nM | mean graph midpoint (MG_MID) of Log10 LC50 (CNS cancer cell lines; CNS panel, log of concentration leading to 50% net cell death): 4.29 | GI50 (CNS cancer cell lines; CNS panel, log of concentration in mol/L causing 50% inhibition of net cell growth, read-out: mean graph midpoint (MG_MID) of Log10 GI50 (converted)): 3090 nM | GI50 (CNS cancer cell lines; six CNS cancer cell lines, exposure at least 48 hrs, read-out: GI50, range over the panel): 1230 to 4960 nM | mean graph midpoint (MG_MID) of Log10 LC50 (Colon cancer cell lines; Colon panel, log of concentration leading to 50% net cell death): 4.19 | GI50 (Colon cancer cell lines; Colon panel, log of concentration in mol/L causing 50% inhibition of net cell growth, read-out: mean graph midpoint (MG_MID) of Log10 GI50 (converted)): 1910 nM | GI50 (Colon cancer cell lines; seven colon cancer cell lines, exposure at least 48 hrs, read-out: GI50, range over the panel): 740 to 1920 nM | GI50 ([4]; Leukemia panel, log of concentration in mol/L causing 50% inhibition of net cell growth, read-out: mean graph midpoint (MG_MID) of Log10 GI50 (converted)): 380 nM | LC50 ([4]; Leukemia panel, log of concentration leading to 50% net cell death, read-out: mean graph midpoint (MG_MID) of Log10 LC50 (converted)): ≥ 100000 nM | GI50 ([4]; two leukemia cancer cell lines (RPMI-8226 and K-562), exposure at least 48 hrs, read-out: GI50, range over the panel): 230 to 590 nM | GI50 ([5]; Melanoma panel, log of concentration in mol/L causing 50% inhibition of net cell growth, read-out: mean graph midpoint (MG_MID) of Log10 GI50 (converted)): 2040 nM | GI50 ([5]; nine melanoma cancer cell lines, exposure at least 48 hrs, read-out: GI50, range over the panel): 1230 to 3020 nM | mean graph midpoint (MG_MID) of Log10 LC50 ([5]; Melanoma panel, log of concentration leading to 50% net cell death): 4.67 | GI50 ([6]; Non-small cell lung panel, log of concentration in mol/L causing 50% inhibition of net cell growth, read-out: mean graph midpoint (MG_MID) of Log10 GI50 (converted)): 13800 nM | GI50 ([6]; nine non-small cell lung cancer cell lines, exposure at least 48 hrs, read-out: GI50, range over the panel): 1050 to 14400 nM | GI50 ([7]; Ovarian panel, log of concentration in mol/L causing 50% inhibition of net cell growth, read-out: mean graph midpoint (MG_MID) of Log10 GI50 (converted)): 2950 nM | LC50 ([7]; Ovarian panel, log of concentration leading to 50% net cell death, read-out: mean graph midpoint (MG_MID) of Log10 LC50 (converted)): 75900 nM | GI50 ([7]; six ovarian cancer cell lines, exposure at least 48 hrs, read-out: GI50, range over the panel): 1480 to 5120 nM | GI50 ([8]; Homo sapiens, log of concentration in mol/L causing 50% inhibition of net cell growth, read-out: mean graph midpoint (MG_MID) of Log10 GI50 (converted)): 2630 nM | LC50 ([8]; Homo sapiens, log of concentration leading to 50% net cell death, read-out: mean graph midpoint (MG_MID) of Log10 LC50 (converted)): ≥ 100000 nM | mean graph midpoint (MG_MID) of Log10 TGI ([8]; log of concentration resulting in total inhibition of net cell growth): 4.73 | GI50 (Renal cancer cell lines; Renal panel, log of concentration in mol/L causing 50% inhibition of net cell growth, read-out: mean graph midpoint (MG_MID) of Log10 GI50 (converted)): 2630 nM | LC50 (Renal cancer cell lines; Renal panel, log of concentration leading to 50% net cell death, read-out: mean graph midpoint (MG_MID) of Log10 LC50 (converted)): 27500 nM | GI50 (Renal cancer cell lines; eight renal cancer cell lines, exposure at least 48 hrs, read-out: GI50, range over the panel): 960 to 20300 nM
